Laboratory results taken from patent US11691972B2, “Compounds for targeted degradation of BRD9” (C4 Therapeutics, Inc., priority 2020, dated 2023).

How the values were obtained:
BRD9 [1] = target: T1, BRD9 (Homo sapiens, UniProt Q9H8M2); test: Protein degradation by HiBiT luminescent readout (BRD9, BRD7, BRD4); type: cell-based; set-up: endogenously expressing BRD9 with HiBiT fusion tag via CRISPR; host or cells: 293T.166 (BRD9-HiBiT), also expressing LgBiT ectopically; details: FIG. 11
T1 sequence (Q9H8M2 1-597): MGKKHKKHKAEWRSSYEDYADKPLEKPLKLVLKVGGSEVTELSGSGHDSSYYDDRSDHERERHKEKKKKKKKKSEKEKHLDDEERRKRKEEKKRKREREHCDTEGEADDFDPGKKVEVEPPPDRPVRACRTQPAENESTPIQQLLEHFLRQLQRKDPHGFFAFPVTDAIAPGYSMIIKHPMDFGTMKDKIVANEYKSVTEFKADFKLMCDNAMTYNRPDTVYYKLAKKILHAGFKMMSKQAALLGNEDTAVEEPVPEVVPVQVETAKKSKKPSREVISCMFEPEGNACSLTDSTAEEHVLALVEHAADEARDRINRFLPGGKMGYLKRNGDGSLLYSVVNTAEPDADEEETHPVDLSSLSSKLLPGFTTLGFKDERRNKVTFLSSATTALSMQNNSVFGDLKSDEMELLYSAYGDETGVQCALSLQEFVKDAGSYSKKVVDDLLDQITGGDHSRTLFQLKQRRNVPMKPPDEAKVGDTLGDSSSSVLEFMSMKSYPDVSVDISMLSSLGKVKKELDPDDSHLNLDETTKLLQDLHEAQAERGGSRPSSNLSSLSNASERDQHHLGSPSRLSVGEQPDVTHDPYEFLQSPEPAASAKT

CYP 2D6 = CYP 2D6 (Homo sapiens, UniProt P10635); test: CYP inhibition 2D6; type: in vitro ADME
BRD7 = target: T2, BRD7 (Homo sapiens, UniProt Q9NPI1); test: BRD7 degradation (24 h), HiBiT 293T.167 cells; type: cell-based
T2 construct: endogenously expressing BRD7 with HiBiT fusion tag via CRISPR; host or cells: 293T.167 (BRD7-HiBiT), also expressing LgBiT ectopically
Excerpt: Dulbecco's modified Eagle medium (DMEM) without phenol red and fetal bovine serum (FBS) were purchased from Gibco (Grand Island, N.Y., USA). Nano-Glo® HiBiT Lytic Assay System was purchased from Promega (Madison, Wis., USA). 293T.166 (BRD9-HiBiT) cell line, endogenously expressing BRD9 with HiBiT fusion tag via CRISPR and ectopically expressing LgBiT tag, was purchased from Promega (Madison, Wis., USA). 293T.167 (BRD7-HiBiT) cell line, endogenously expressing BRD7 with HiBiT fusion tag via CRISPR and ectopically expressing LgBiT tag, was purchased from Promega (Madison, Wis., USA). 293T.92 (BRD4-HiBiT) cell line, endogenously expressing BRD4 with HiBiT fusion tag via CRISPR and ectopically expressing LgBiT tag, was generated in-house. Cell culture flasks and 384-well microplates were acquired from VWR (Radnor, Pa., USA).
BRD9 degradation was determined based on quantification of luminescent signal using Nano-Glo® HiBiT Lytic Assay kit. Test compounds were added to the 384-well plate from a top concentration of 10 μM with 11 points, half log titration in duplicates. 293T.166 cells were added into 384-well plates at a cell density of 10,000 cells per well. […] BRD7 and BRD4 degradation was similarly determined with 293T.167 cells and 293T.92 cells, respectively. […] Luminescence was acquired on EnVision™ Multilabel Reader (PerkinElmer, Santa Clara, Calif., USA).

BRD9 [2] = target: T1, BRD9; test: BRD9 binding (Ki)
BRD9 [3] = target: T1, BRD9; test: Western blot, in-vivo BRD9 degradation in ASKA-SS tumors; set-up: inoculated subcutaneously into BALB/c nude mice at the right flank for tumor development; from tissue; host or cells: Yamato-SS xenograft tumours in BALB/c nude mice; species or system BALB/c nude mice; details: single dose 10 or 75 mg/kg PO, FIG. 13
Method: ASKA-SS cells were maintained in vitro until exponential growth phase and inoculated subcutaneously into BALB/c nude mice at the right flank for tumor development. Mice were treated with single dose of Compound 172 at 10 or 75 mg/kg PO. Tumor were collected at indicated time points and snap frozen until lysis. Tumors were ground and lysed in RIPA Buffer containing 2× protease/phosphatase inhibitor using a freeze grinder at 50 Hz for 5 minutes. Protein concentrations were determined by Pierce™ BCA Protein Assay Kit. Samples were diluted to appropriate concentrations and run in a western blot.

BRD9 [4] = target: T1, BRD9; test: Western blot of BRD9, BRD4 and BRD7 in Yamato-SS cells; type: cell-based; set-up: endogenous in cells; host or cells: Yamato-SS (human synovial sarcoma); details: FIG. 3
Method: After treatment cells were collected, lysed in RIPA buffer supplemented with 2× proteasome/protease inhibitor, and protein concentrations were determined by Pierce™ BCA Protein Assay Kit. Samples were diluted to appropriate concentrations and run in a western blot.

CYP 2C19 = CYP 2C19 (Homo sapiens, UniProt P33261); test: CYP inhibition 2C19; type: in vitro ADME
GSPT1 = GSPT1 (Homo sapiens, UniProt P15170); test: GSPT1 degradation; type: cell-based; details: one value given for IKZF1/SALL4/GSPT1
BRD9 [5] = target: BRD9 (Mus musculus, UniProt Q3UQU0); test: BRD9 degradation in mouse cells (24 h); type: cell-based
CYP 2C8 = CYP 2C8 (Homo sapiens, UniProt P10632); test: CYP inhibition 2C8; type: in vitro ADME
BRD9 [6] = target: BRD9 (Canis lupus familiaris, UniProt A0A8I3PU24); test: BRD9 degradation in dog cells (24 h); type: cell-based
BRD9-E3 = BRD9-E3 (Homo sapiens, UniProt Q96SW2+Q9H8M2); test: BRD9-E3 dimerization; type: biochemical; details: not explained
E3 = E3 (Homo sapiens, UniProt Q96SW2); test: FP-E3 binding (Kd)
Chain of E3 (Q96SW2 whole entry): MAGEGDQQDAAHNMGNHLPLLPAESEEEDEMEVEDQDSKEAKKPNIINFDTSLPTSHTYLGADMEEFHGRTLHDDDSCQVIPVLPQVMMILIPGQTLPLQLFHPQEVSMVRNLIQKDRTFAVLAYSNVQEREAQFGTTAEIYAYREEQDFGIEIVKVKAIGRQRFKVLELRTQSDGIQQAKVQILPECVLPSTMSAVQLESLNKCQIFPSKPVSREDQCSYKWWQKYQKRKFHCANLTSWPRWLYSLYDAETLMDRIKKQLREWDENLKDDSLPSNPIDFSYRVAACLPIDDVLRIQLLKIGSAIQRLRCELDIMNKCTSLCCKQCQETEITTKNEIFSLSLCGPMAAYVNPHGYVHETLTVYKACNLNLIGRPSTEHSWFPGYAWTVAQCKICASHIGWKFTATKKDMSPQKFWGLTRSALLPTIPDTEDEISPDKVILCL

Chain of BRD9-E3 (Q96SW2 whole entry, one chain of several): as the sequence (Q96SW2 whole entry) above
Chain of BRD9 (Canis lupus familiaris, UniProt A0A8I3PU24) (A0A8I3PU24 1-600): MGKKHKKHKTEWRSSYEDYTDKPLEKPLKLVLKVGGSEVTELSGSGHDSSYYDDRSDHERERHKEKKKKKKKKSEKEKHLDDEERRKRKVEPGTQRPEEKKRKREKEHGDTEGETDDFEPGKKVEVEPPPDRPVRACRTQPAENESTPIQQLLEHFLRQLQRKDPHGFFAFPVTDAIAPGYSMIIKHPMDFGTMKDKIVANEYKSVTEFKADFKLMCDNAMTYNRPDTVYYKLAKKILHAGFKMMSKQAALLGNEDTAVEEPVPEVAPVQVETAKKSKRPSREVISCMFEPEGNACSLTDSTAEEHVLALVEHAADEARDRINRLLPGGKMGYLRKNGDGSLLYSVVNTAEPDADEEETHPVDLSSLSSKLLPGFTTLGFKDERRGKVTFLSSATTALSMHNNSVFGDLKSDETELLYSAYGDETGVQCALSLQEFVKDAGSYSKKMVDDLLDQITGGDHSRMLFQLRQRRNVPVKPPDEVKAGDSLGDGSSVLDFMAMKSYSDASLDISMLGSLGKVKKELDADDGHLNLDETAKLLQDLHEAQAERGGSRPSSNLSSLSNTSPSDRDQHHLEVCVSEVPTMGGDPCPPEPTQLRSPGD
T2 sequence (Q9NPI1 whole entry, the tested form may be a part): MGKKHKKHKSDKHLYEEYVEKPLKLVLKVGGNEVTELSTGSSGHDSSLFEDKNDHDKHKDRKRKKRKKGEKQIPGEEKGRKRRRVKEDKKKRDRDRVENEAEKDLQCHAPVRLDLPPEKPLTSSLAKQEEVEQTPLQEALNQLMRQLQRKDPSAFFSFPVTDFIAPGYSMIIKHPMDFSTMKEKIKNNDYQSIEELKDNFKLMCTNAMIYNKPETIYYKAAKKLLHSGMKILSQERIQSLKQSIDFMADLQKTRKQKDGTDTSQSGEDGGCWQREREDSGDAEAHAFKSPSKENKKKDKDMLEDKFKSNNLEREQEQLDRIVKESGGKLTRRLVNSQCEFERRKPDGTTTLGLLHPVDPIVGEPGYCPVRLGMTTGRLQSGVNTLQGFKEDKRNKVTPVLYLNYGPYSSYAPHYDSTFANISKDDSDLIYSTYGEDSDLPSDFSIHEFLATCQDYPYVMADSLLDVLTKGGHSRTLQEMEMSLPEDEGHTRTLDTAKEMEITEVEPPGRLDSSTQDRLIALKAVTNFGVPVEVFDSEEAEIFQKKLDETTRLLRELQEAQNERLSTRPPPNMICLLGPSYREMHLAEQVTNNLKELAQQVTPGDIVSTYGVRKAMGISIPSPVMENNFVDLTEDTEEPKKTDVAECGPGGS
Chain of BRD9 (Mus musculus, UniProt Q3UQU0) (Q3UQU0 whole entry): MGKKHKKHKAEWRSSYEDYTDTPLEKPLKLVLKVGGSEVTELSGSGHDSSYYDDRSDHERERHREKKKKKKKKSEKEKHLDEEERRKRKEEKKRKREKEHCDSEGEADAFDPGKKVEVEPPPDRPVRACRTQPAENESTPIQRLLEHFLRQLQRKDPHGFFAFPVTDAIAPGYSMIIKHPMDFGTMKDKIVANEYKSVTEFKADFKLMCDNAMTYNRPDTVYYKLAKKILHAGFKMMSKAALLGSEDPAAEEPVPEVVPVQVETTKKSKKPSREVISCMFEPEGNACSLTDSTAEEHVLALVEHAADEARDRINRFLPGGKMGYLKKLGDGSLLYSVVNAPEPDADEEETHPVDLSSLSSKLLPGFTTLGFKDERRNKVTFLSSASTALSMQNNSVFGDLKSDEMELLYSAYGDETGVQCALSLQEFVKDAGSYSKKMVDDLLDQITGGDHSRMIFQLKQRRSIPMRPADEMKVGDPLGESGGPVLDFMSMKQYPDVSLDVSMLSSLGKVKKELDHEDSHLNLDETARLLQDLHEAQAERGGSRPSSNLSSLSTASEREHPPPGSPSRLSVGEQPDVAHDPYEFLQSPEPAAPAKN
Chain of CYP 2D6 (P10635 whole entry): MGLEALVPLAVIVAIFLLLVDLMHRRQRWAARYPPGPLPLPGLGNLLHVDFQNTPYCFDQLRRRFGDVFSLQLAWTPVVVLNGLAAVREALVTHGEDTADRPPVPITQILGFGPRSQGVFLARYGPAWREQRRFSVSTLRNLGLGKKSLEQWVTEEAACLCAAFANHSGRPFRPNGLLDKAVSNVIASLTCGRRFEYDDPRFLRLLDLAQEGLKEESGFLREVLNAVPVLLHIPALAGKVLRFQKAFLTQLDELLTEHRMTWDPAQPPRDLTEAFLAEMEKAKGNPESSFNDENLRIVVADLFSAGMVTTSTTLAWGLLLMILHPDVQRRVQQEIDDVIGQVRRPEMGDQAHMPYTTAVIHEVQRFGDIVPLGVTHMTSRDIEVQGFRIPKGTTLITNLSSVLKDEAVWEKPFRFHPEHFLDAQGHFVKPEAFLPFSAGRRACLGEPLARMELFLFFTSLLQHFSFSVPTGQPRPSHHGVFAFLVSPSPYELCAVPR
Chain of CYP 2C8 (P10632 whole entry): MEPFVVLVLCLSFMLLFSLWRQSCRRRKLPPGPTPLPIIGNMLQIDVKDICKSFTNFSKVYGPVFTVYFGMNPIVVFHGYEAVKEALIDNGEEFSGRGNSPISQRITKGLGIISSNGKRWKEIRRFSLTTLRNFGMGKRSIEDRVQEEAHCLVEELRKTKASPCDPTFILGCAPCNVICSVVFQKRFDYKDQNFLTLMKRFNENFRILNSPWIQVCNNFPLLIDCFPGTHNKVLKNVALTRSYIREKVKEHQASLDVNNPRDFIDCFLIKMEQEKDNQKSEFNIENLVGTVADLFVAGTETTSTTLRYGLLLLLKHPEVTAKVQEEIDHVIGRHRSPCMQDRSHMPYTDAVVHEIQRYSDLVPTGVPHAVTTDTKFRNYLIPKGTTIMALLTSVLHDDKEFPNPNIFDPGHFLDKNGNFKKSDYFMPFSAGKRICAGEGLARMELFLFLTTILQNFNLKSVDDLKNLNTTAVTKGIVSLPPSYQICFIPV
Chain of CYP 2C19 (P33261 whole entry): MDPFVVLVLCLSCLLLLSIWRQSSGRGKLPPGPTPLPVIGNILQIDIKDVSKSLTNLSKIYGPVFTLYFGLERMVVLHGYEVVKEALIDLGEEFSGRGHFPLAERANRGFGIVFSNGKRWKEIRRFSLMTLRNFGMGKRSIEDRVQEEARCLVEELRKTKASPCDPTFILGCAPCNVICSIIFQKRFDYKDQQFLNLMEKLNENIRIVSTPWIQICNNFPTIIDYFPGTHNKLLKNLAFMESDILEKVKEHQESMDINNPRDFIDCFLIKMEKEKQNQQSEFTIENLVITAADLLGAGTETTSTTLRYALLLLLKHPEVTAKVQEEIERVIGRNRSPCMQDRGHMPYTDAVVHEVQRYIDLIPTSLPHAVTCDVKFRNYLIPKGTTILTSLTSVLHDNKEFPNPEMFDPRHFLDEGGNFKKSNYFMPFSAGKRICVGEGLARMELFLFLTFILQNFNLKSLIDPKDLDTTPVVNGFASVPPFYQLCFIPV
Chain of GSPT1 (P15170 whole entry, species assumed): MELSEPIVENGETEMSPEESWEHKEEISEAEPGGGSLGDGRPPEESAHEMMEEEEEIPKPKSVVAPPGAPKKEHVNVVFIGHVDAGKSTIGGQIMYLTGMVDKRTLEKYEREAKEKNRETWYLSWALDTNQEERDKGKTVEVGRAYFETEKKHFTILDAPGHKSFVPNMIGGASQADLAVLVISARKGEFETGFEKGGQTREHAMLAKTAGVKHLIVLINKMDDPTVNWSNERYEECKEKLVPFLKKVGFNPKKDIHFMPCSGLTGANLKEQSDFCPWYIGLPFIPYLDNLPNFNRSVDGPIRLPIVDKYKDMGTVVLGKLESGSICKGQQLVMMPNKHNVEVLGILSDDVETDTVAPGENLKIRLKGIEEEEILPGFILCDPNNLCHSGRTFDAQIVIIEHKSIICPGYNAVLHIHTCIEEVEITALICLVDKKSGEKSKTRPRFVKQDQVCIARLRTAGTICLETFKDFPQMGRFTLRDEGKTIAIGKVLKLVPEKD

Row | Structure (SMILES) | protein degradation levels by HiBiT luminescent readout, BRD9 versus BRD7 and BRD4 (BRD9 [1]) | IC50 (CYP 2D6) [µM] | Emax (BRD7) [%] | DC50 (BRD7; 24 h, read-out: BRD7 degradation (24 h), IP) [µM] | Ki (BRD9 [2]) [µM] | in-vivo BRD9 degradation, western blot (BRD9 [3]) | degradation of BRD9 versus BRD4 and BRD7, western blot (BRD9 [4]) | IC50 (CYP 2C19) [µM] | DC50 (GSPT1) [µM] | BRD9 degradation mouse cells (24 h), percent (BRD9 [5]) [%] | DC50 (BRD9 [5]; read-out: BRD9 degradation mouse cells (24 h), concentration) [µM] | IC50 (CYP 2C8) [µM] | BRD9 degradation dog cells (24 h), percent (BRD9 [6]) [%] | DC50 (BRD9 [6]; read-out: BRD9 degradation dog cells (24 h), concentration) [µM] | BRD9-E3 dimerization, first value (BRD9-E3; first of three values) [nM] | BRD9-E3 dimerization, second value (BRD9-E3; second of three values) [nM] | BRD9-E3 dimerization, third value (BRD9-E3; third of three values) [%] | Kd (E3) [µM]
1 | COc1cc(-c2cn(C)c(=O)c(C)c2C)cc(OC)c1CN1CCC(N2CCN(c3ccc(NC4CCC(=O)NC4=O)cc3F)CC2)C(F)(F)C1 (single isomer, unassigned) [Compound 176, 3-[4-[4-[1-[[2,6-dimethoxy-4-(1,4,5-trimethyl-6-oxo-3-pyridyl)phenyl]methyl]-3,3-difluoro-4-piperidyl]piperazin-1-yl]-3-fluoro-anilino]piperidine-2,6-dione] | selective degradation |  |  |  |  |  |  |  |  |  |  |  |  |  |  |  |  | 
2 | COc1cc(-c2cn(C)c(=O)c(C)c2C)cc(OC)c1CN1CCC(N2CCN(c3ccc(NC4CCC(=O)NC4=O)cc3F)CC2)C(F)(F)C1 (stereo not drawn) [Compound 172, 3-[4-[4-[1-[[2,6-dimethoxy-4-(1,4,5-trimethyl-6-oxo-3-pyridyl)phenyl]methyl]-3,3-difluoro-4-piperidyl]piperazin-1-yl]-3-fluoro-anilino]piperidine-2,6-dione] |  | 30 | 100 | > 9.99 | 0.082 | dose dependent in-vivo BRD9 degradation | dose response degradation specific to BRD9, and not bromodomain containing proteins BRD4 and BRD7 | 30 | > 9.99 | 36 | 0.099 | 30 | 36.4 | 0.099 | 120 | 461 | 13 | 0.95
